Assay [1] has as its target T1, cysteine-less RGS14 RGS-box protein (Homo sapiens, UniProt O43566, C100S/C183S).
T1 construct: human RGS14 RGS-box (aa 46–195 of UniProt O43566); host or cells: E. coli
T1 sequence (O43566 46-195 C100S/C183S): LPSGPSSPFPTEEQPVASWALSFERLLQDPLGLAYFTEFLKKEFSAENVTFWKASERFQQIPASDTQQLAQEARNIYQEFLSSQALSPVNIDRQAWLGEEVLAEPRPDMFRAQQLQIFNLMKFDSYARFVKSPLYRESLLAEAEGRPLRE
The assay can be described thus: Transcreener GDP RGScreen assay with cysteine-less RGS14 RGS-box. Format: biochemical. Particulars: range given jointly for cysteine-less RGS14 and RGS12 proteins; read-out: estimated IC50, cysteine-less RGS14 RGS-box. The source says:
Given the earlier experience with screening hit CCG-4986 being a covalent modifier of RGS4 cysteine residues ([35]), we sought to exclude protein-thiol reactivity as a potential mechanism of action of the active compounds derived from the AtomNet virtual screening effort ([55]) and SAR campaign follow-ups. To address this possibility and screen out thiol-reactive hits, cysteine-lacking versions of recombinant proteins spanning the RGS-boxes of RGS14 and RGS12 were purified from E. coli cultures.
Reagents and protocols for the fluorescence anisotropy-based Transcreener GDP RGScreen assay using a rate-altered, double point-mutant, recombinant Gαi1 protein have been extensively described previously ([43], [44]); reactions were always performed so that total GTP converted over the time course was consistently less than 10% of reaction maximum input. Specific methods for its application in assessing RGS14 and RGS12 GAP activity are summarized as follows. Open-reading frames (ORFs) encoding wild-type versions of the human RGS14 RGS-box (aa 46–195 of UniProt O43566) and human RGS12 RGS-box (aa 695–843 of UniProt O14924) were each sub-cloned in-frame with an N-terminal hexahistidine (His6) expression tag in the plasmid pET30a, expressed in E. coli cultures, and then purified by nickel-nitriloacetate (Ni-NTA) and size-exclusion (Superdex 200) column chromatographies by GenScript using previously described methods ([35]). […]
Supplementary Figure S5. […] (A,B) Recombinant, cysteine residue-lacking (“-cys”) RGS14 RGS-box protein (panel A) and cysteine residue-lacking RGS12 RGS-box protein ([…]) were both observed, in a concentration-dependent fashion (indicated in ng/µL by color), to increase steady-state GDP production by 0.5 ng/µL Gai1(DM) protein in a 20 µL final reaction volume, as measured by the Transcreener® GDP-detection RGScreen™ assay and detected by the change in polarization (ΔmP) at each indicated time point (“enz” = Gai1(DM) protein a.k.a. […]

The target of assay [2] is T2, RGS14 RGS-box (GAP activity on wild-type Gαi1) (Homo sapiens, UniProt O43566).
T2 sequence (O43566 67-184 limits assumed): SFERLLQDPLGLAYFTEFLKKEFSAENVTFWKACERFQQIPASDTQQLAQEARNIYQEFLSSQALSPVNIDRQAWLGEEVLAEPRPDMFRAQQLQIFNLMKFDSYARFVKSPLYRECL
The assay can be described thus: Single-turnover [γ-33P]GTP hydrolysis assay of RGS-box GAP activity. The format is biochemical. Particulars: wild-type Gαi1, concentration-dependent. The text has this: To further evaluate the functional activity of these triazolothiadiazine derivatives, and especially to eliminate concerns of misascribing GAP-inhibitory activity to potential assay interference, we tested two representative compounds—Z55660043 and Z55627844—in the gold-standard single-turnover radioactive GTP hydrolysis assay ([7], [58]) (Fig. 6).
The single-turnover radiolabeled-GTP hydrolysis assay is the gold standard assay for RGS-box GAP activity, first described using [γ -^32P]GTP by Berman et al. ([7]) and recently modified for modern performance ([91], [92], [93], [94]) to use readily available [γ-^33P]GTP substrate and perchloric acid quenching. The assay was performed by first pre-loading wild-type (WT) Gα protein (i.e., 750 nM purified, recombinant, wild-type-sequence human Gαi1 protein) with a slight excess (1 μM) of [γ-^33P]GTP for 15 min at 30 °C. Assay initiation involved adding purified recombinant RGS protein previously pre-incubated for 30 min at 30 °C with a candidate inhibitor. […] Supernatant aliquots were then added to liquid scintillation fluid and [^33P]-Pi content (i.e., hydrolyzed GTP) was quantified with a scintillation counter with an appropriate β-transmission window.

As for `COc1ccc(OCc2nnc3n2N=C(c2ccc(OC)c(OC)c2)CS3)cc1` [Z55660043, 6-(3,4-dimethoxyphenyl)-3-[(4-methoxy-phenoxy)methyl]-5H-[1,2,4]triazolo[3,4-b][1,3,4]thiadiazine], the IC50 in assay [1] was 10 to 19 µM. In assay [2], the “inhibition of RGS14 RGS-box-mediated acceleration of [γ-33P]GTP hydrolysis” value is “inhibit RGS14 RGS-box-mediated acceleration”.
